# Reference: EP0938474B1, “CYCLOPROPYLINDOLE COMPOUNDS AND THEIR USE AS PRODRUGS” (AUCKLAND UNISERVICES LIMITED, priority 1996, dated 1998)
# Tests used:
# [1] = test system: human colon NR-(wild-type) line WIDR; assay: Cytotoxicity in untransfected control cells (NR-), nitroreductase activation test; assay type: cell-based; conditions: IC50, unit inferred, read-out: Human colon lines NR-
# Text: (§1) Compounds of the invention were further tested against human cell lines (NR+ in Table 3) transfected with a gene encoding a bacterial nitroreductase (NR) enzyme to test for activation of compounds of the invention with NR. Untransfected control cells (NR- in Table 3) were used as controls. The cells used were the human colon NR-(wild-type) line WIDR and its transfected NR+ counterpart WC14.10; and the human ovarian NR- (wild-type) line SKOV3 together with its NR+ (transfected) counterpart SC3.2. The results are shown in Table 3, which also indicates the ratios of IC50s. These are intra-experiment values, and may differ slightly from those calculated from the given NR- and NR+ values.
# [2] = test system: human ovarian NR- (wild-type) line SKOV3; assay: as above; assay type: cell-based; conditions: SK-OV-3, IC50, unit inferred, read-out: Human ovarian lines NR-
# Text: as §1
# [3] = test system: SC3.2; assay: Cytotoxicity in cells transfected with bacterial nitroreductase (NR+); assay type: cell-based; conditions: Homo sapiens, SK-OV-3; SC3.2 (NR+ transfected counterpart of SKOV3); IC50, unit inferred; read-out: Human ovarian lines NR+
# Text: as §1
# [4] = test system: WC14.10; assay: as above; assay type: cell-based; conditions: Homo sapiens; WC14.10 (NR+ transfected counterpart of WIDR); IC50, unit inferred; read-out: Human colon lines NR+
# Text: as §1
# [5] = test system: AA8; assay: Cytotoxicity (growth inhibition), 4 h drug exposure, methylene blue staining; assay type: cell-based; conditions: Cricetulus griseus, CHO-AA8; AA8 wild type rodent cell line; 4 hours exposure, then three days incubation
# Description: (§2) Compounds of the invention were tested for cytotoxicity against four different cell lines, all of which are widely available in the art. AA8 is a wild type rodent cell line. UV4 is a mutant AA8 cell line defective in excision repair, and hypersensitive to many alkylating agents. EMT6 is a widely-used rodent line. SKOV is a human ovarian cell line.
# (§3) Cell culture assays were performed in 96-well microtitre trays. Compounds of the invention were added in culture medium, using serial two-fold dilutions to provide duplicate cultures at five different concentrations for each of eight drugs (plus eight controls) per tray. Drugs were dissolved in water or DMSO immediately prior to addition to the cell culture. After 4 hours, drugs were removed by washing cultures three times with fresh medium, and the trays were incubated for a futher three days. Cell density was then determined by staining with methylene blue as described previously (Finlay, G. J., et al, Anal. Biochm. 1984, 139, 272-277) and the IC50 was calculated as the drug concentration providing 50% inhibition of growth relative to the controls.
# [6] = test system: EMT6; assay: as above; assay type: cell-based; conditions: Mus musculus; EMT6 rodent line; 4 hours exposure, then three days incubation
# Description: as §2, §3
# [7] = test system: SKOV3; assay: as above; assay type: cell-based; conditions: SK-OV-3; human ovarian cell line; 4 hours exposure, then three days incubation
# Description: as §2, §3
# [8] = test system: UV4; assay: as above; assay type: cell-based, rodent; conditions: Cricetulus griseus; UV4 mutant AA8 line defective in excision repair; 4 hours exposure, then three days incubation
# Description: as §2, §3
SMILES,IC50 [1],IC50 [2],IC50 [3],IC50 [4],IC50 [5],IC50 [6],IC50 [7],IC50 [8]
COc1cc2cc(C(=O)N3CC(CCl)c4c3cc([N+](=O)[O-])c3ccccc43)[nH]c2c(OC)c1OC (racemic) [14a],1300 nM,1600 nM,140 nM,380 nM,,,,
COc1cc2cc(C(=O)N3C[C@H](CCl)c4c3cc([N+](=O)[O-])c3ccccc43)[nH]c2c(OC)c1OC [14aR],> 20000 nM,> 20000 nM,300 nM,> 20000 nM,,,,
COc1cc2cc(C(=O)N3C[C@@H](CCl)c4c3cc([N+](=O)[O-])c3ccccc43)[nH]c2c(OC)c1OC [14aS],350 nM,400 nM,40 nM,90 nM,,,,
"O=C(c1cc2cc([N+](=O)[O-])ccc2[nH]1)N1CC(CCl)c2c1cc([N+](=O)[O-])c1ccccc21 (stereo not drawn) [14b, 1-(chloromethyl)-5-nitro-3-[(5-nitroindol-2-yl)carbonyl]-1,2-dihydro-3H-benz[e]indole]",390 nM,400 nM,390 nM,210 nM,,,,
"CC(=O)Nc1ccc2[nH]c(C(=O)N3CC(CCl)c4c3cc([N+](=O)[O-])c3ccccc43)cc2c1 (stereo not drawn) [14c, 3-[[5-(acetylamino)indol-2-yl]carbonyl]-1-(chloromethyl)-5-nitro-1,2-dihydro-3H-benz[e]indole]",1600 nM,4300 nM,250 nM,360 nM,,,,
"COc1ccc2[nH]c(C(=O)N3CC(CCl)c4c3cc([N+](=O)[O-])c3ccccc43)cc2c1 (stereo not drawn) [14d, 1-(chloromethyl)-3-[(5-methoxyindol-2-yl)carbonyl]-5-nitro-1,2-dihydro-3H-benz[e]indole]",740 nM,580 nM,150 nM,290 nM,,,,
"CN(C)CCOc1ccc2[nH]c(C(=O)N3CC(CCl)c4c3cc([N+](=O)[O-])c3ccccc43)cc2c1 (stereo not drawn) [14e, 1-(chloromethyl)-3-[[5-[2-(dimethylamino)-ethoxy]indol-2-yl]carbonyl] -5-nitro-1,2-dihydro-3H-benz [e] indole]",370 nM,1000 nM,90 nM,130 nM,,,,
"COc1cc2cc(C(=O)N3CC(CCl)c4c3cc(N)c3ccccc43)[nH]c2c(OC)c1OC (stereo not drawn) [15a, 5-amino-1-(chloromethyl)-3-[(5,6,7-trimethoxyindol-2-yl)carbonyl]-1,2-dihydro-3H-benz [e] indole]",,,,,0.45 nM,0.27 nM,1 nM,0.28 nM
"COc1cc2cc(C(=O)N3C[C@H](CCl)c4c3cc(N)c3ccccc43)[nH]c2c(OC)c1OC [15aR, (R)-5-amino-1-(chloromethyl)-3-[(5,6,7-trimethoxyindol-,2-yl)carbonyl]-1,2-dihydro-3H-benz[e]indole]",,,,,13.6 nM,7 nM,7.8 nM,2.6 nM
"COc1cc2cc(C(=O)N3C[C@@H](CCl)c4c3cc(N)c3ccccc43)[nH]c2c(OC)c1OC [15aS, (S)-5-amino-1-(chloromethyl)-3-[(5,6,7-trimethoxyindol-2-yl)carbonyl]-1,2-dihydro-3H-benz[e]indole]",,,,,0.2 nM,0.1 nM,0.5 nM,0.1 nM
"Nc1ccc2[nH]c(C(=O)N3CC(CCl)c4c3cc(N)c3ccccc43)cc2c1 (stereo not drawn) [15b, 5-amino-3-[(5-aminoindol-2-yl)carbonyl]-1-(chloromethyl)-1,2-dihydro-3H-benz [e] indole]",,,,,2.4 nM,0.8 nM,3 nM,1 nM
"CC(=O)Nc1ccc2[nH]c(C(=O)N3CC(CCl)c4c3cc(N)c3ccccc43)cc2c1 (stereo not drawn) [15c, 3-[[5-(acetylamino)indol-2-yl]carbonyl]-5-amino-1-(chloromethyl)-1,2-dihydro-3H-benz[e]indole]",,,,,12.5 nM,5.2 nM,18 nM,7.6 nM
"COc1ccc2[nH]c(C(=O)N3CC(CCl)c4c3cc(N)c3ccccc43)cc2c1 (stereo not drawn) [15d, 5-amino-1-(chloromethyl)-3-[(5-methoxyindol-2-yl)carbonyl]-1,2-dihydro-3H-benz[e] indole]",,,,,1.2 nM,0.9 nM,1.8 nM,0.8 nM
"CN(C)CCOc1ccc2[nH]c(C(=O)N3CC(CCl)c4c3cc(N)c3ccccc43)cc2c1 (stereo not drawn) [15e, 5-amino-1-(chloromethyl)-3-[[5-[2-(dimethylamino)ethoxy]indol-2-yl]carbonyl]-1,2-dihydro-3H-benz [e] indole]",,,,,3.5 nM,0.9 nM,6.4 nM,1.4 nM
CCCC(=O)Nc1cc(/C=C/C(=O)N2CC(CCl)c3c2cc(N)c2ccccc32)n(C)c1 (stereo not drawn) [15i],,,,,31 nM,5.9 nM,22 nM,16 nM
"COc1cccc(/C=C/C(=O)N2CC(CCl)c3c2cc(N)c2ccccc32)c1 (stereo not drawn) [15l, 5-amino-1-(chloromethyl)-3-[(E)-3-methoxycinnamoyl]-1,2-dihydro-3H-benz[e]indole]",,,,,0.3 nM,0.2 nM,0.6 nM,0.4 nM
"COc1cc2cc(C(=O)N3CC(COS(C)(=O)=O)c4c3cc(N)c3ccccc43)[nH]c2c(OC)c1OC (stereo not drawn) [15o, 5-amino-1-[(methanesulfonyloxy)methyl]-3-[(5,6,7-trimethoxyindol-2-yl)carbonyl]-1,2-dihydro-3H-benz[e]indole]",,,,,660 nM,233 nM,1330 nM,
"CNc1cc2c(c3ccccc13)C(CCl)CN2C(=O)c1cc2cc(OC)c(OC)c(OC)c2[nH]1 (stereo not drawn) [15p, 1-(chloromethyl)-5-methylamino-3-[(5,6,7-trimethoxyindol-2-yl)carbonyl]-1,2-dihydro-3H-benz[e]indole]",,,,,0.1 nM,0.1 nM,0.3 nM,0.1 nM
"COc1cc2cc(C(=O)N3CC(CCl)c4c3cc(N(C)C)c3ccccc43)[nH]c2c(OC)c1OC (stereo not drawn) [15q, 1-(chloromethyl)-5-dimethylamino-3-[(5,6,7-trimethoxy-indol-2-yl)carbonyl]-1,2-dihydro-3H-benz [e] indole]",,,,,5.6 nM,3.8 nM,16 nM,3.7 nM
"COC(=O)c1cc2c3c(cc(N)c2[nH]1)N(C(=O)c1cc2cc(OC)c(OC)c(OC)c2[nH]1)CC3CCl (stereo not drawn) [32a, methyl 5-amino-1-(chloromethyl)-3-[(5,6,7-trimethoxyindol-2-yl)carbonyl]-1,2-dihydro-3H-pyrrolo[3,2-e]indole-7-carboxylate]",,,,,17 nM,5.6 nM,14 nM,1.7 nM
"CNc1cc2c(c3cc(C(=O)OC)[nH]c13)C(CCl)CN2C(=O)c1cc2cc(OC)c(OC)c(OC)c2[nH]1 (stereo not drawn) [32b, methyl 1-(chloromethyl)-5-methylamino-3-[(5,6,7-trimethoxyindol-2-yl)carbanyl]-1,2-dihydro-3H-pyrrolo[3,2-e]indole-7-carboxylate]",,,,,2.4 nM,0.8 nM,1.9 nM,0.7 nM
"COC(=O)c1cc2c3c(cc(N(C)C)c2[nH]1)N(C(=O)c1cc2cc(OC)c(OC)c(OC)c2[nH]1)CC3CCl (stereo not drawn) [32c, methyl 1-(chloromethyl)-5-dimethylamino-3-[(5,6,7-trimethoxyindol-2-yl)carbonyl]-1,2-dihydro-3H-pyrrolo[3,2-e]indole-7-carboxylate]",,,,,12 nM,5.2 nM,12 nM,3.3 nM
